Measurements from US20220144812A1, “QUINOLINE DERIVATIVES AND THEIR USE FOR THE TREATMENT OF CANCER” (Epizyme, Inc., priority 2019, published 2022).

These molecules were tested on H3K18Ac in HB-CLS-2 cells (assay: H3K18AC in-cell western (ICW) assay). Conditions: H3K18Ac in-cell western, HB-CLS-2 cells; read-out: CREBBP ICW IC50.
Type: cell-based
From the text: The following example describes methods and materials relating to an H3K18AC in-cell western assay. IC50 values (micromolar (μM)) are summarized in Table 1, Table 2, and Table 3 under the column labeled: “CREBBP ICW IC50 (micromolar).”
MATERIALS: HB-CLS-2 cell line, DMEM: Ham's F12 medium (1:1 mixture), penicillin-streptomycin, heat inactivated fetal bovine serum, D-PBS, Odyssey blocking buffer, 800CW goat anti-rabbit IgG (H+L) antibody, Licor Odyssey CLx Infrared Scanner, H3K18Ac rabbit monoclonal antibody. DRAQS fluorescent probe solution (5 mM), and 100% methanol were commercially available. HB-CLS-2 adherent cells were maintained in complete growth medium (DMEM: Ham's F12 supplemented with 10% v/v heat inactivated fetal bovine serum) and cultured at 37° C. under 5% CO2.
METHOD: Cell Treatment, ICW for detection of H3K18Ac and DNA content. HB-CLS-2 cells were seeded in assay medium (DMEM: Ham's F12 supplemented with 10% v/v heat inactivated fetal bovine serum and 1% Penicillin/Streptomycin) at a concentration of 80,000 cells per mL in a Poly-D-Lysine coated 384-well culture plates at 50 μL per well. Plates were incubated at room temperature for 30 minutes and then incubated at 37° C., 5% CO2 for additional 16-24 hours. Compounds and DMSO normalization were then added directly to the plates using a D300 Digital Dispenser and returned to the incubator at 37° C., 5% CO2 for 2 hrs. After the incubation, the contents of the plates were discarded into the appropriate waste stream and blotted on laboratory tissue to remove residual liquid. 90 μL per well of 100% ice cold methanol was added to the plates and incubated at room temperature for 15 minutes. Then methanol was then discarded into the appropriate waste stream and the plates again blotted on laboratory tissue to remove residual liquid. Plates were transferred to a Biotek 405 plate washer and washed 3 times with 100 μL per well of wash buffer (1X PBS containing 0.1% Triton X-100 (v/v)). Next, 50 μL per well of Odyssey blocking buffer with 0.1% Tween 20 (v/v) was added to each plate and incubated for 1 hour at room temperature. Blocking buffer was removed and 20 μL of primary antibody were added (α-H3K18Ac diluted 1:800 in Odyssey buffer with 0.1% Tween 20 (v/v)) and plates were incubated overnight (16 hours) at 4° C. Plates were washed 5 times with 100 μL per well of wash buffer. Next 20 μL per well of secondary antibody was added (1:400 800CW goat anti-rabbit IgG (H+L) antibody, 1:2000 DRAQ5 in Odyssey buffer with 0.1% Tween 20 (v/v)) and incubated for 1 hour at room temperature. The plates were washed 3 times with 100 μL per well wash buffer then 3 times with 100 μL per well of water. Plates were allowed to dry at room temperature then imaged on the Licor Odyssey CLx machine which measured integrated intensity at 700 nm and 800 nm wavelengths. Both 700 and 800 channels were scanned.

Row | IC50 [µM] | SMILES
1 | 20 | CCn1ncc(CN(C)C(=O)c2nc(-c3cnn(CC4CCCN4)c3)nc3ccc(Cl)cc23)c1C (centres unmarked) [Compound 204]
2 | 20 | CCn1ncc(CN(C)C(=O)c2cc(N3CCN(C(=O)OC(C)(C)C)CC3)nc3ccc(Cl)cc23)c1C [Compound 205]
3 | 20 | CCn1ncc(CN(C)C(=O)c2nc(C3CCCN3)nc3ccc(Cl)cc23)c1C (centres unmarked) [Compound 207]
4 | 20 | CCn1ncc(CN(C)C(=O)c2cc(N3CCN(C)CC3)nc3ccc(Cl)cc23)c1C [Compound 214]
5 | 20 | CCn1ncc(CN(C)C(=O)c2nc(-c3cnn(CCC(O)CNC)c3)nc3ccc(Cl)cc23)c1C (centres unmarked) [Compound 223]
6 | 20 | CCn1ncc(CN(C)C(=O)c2nc(-c3ccc4ccn(C(=O)OC(C)(C)C)c4c3)nc3ccc(Cl)cc23)c1C [Compound 234]
7 | 20 | CCn1ncc(CN(C)C(=O)c2cc(N3CCN(C(C)=O)CC3)nc3ccc(Cl)cc23)c1C [Compound 244]
8 | 20 | CCn1ncc(CN(C)C(=O)c2cc(N3CCNCC3)nc3ccc(Cl)cc23)c1C [Compound 246]
9 | 20 | CCn1ncc(CN(C)C(=O)c2nc(-c3cnn(CCC(O)CN4CCCC4)c3)nc3ccc(Cl)cc23)c1C (centres unmarked) [Compound 249]
10 | 20 | CCn1ncc(CN(C)C(=O)c2nc(-c3ccc(OCCN(C)C(=O)OC(C)(C)C)c(F)c3)nc3ccc(Cl)cc23)c1C [Compound 251]
11 | 20 | CCn1ncc(CN(C)C(=O)c2nc(-c3ccc(OCCNC(=O)OC(C)(C)C)c(F)c3)nc3ccc(Cl)cc23)c1C [Compound 252]
12 | 0.26 | CCn1ncc(CN(C)C(=O)c2nc(-c3cc(C(=O)NC4CC4)n(C)n3)nc3ccc(Cl)cc23)c1C [Compound 421]
13 | 0.6 | CCn1ncc(CN(C)C(=O)c2nc(-c3cc(N)c4nc[nH]c4c3)nc3ccc(Cl)cc23)c1C [Compound 422]
14 | 0.53 | CCc1cc(CNC)cc(-c2nc(C(=O)N(C)Cc3cnn(CC)c3C)c3cc(Cl)ccc3n2)c1 [Compound 423]
15 | 0.15 | CCc1nc(-c2cc(C(=O)N(C)Cc3cnn(CC)c3C)c3cc(Cl)ccc3n2)ccc1NCCNC [Compound 425]
16 | 0.19 | CCn1ncc(CN(C)C(=O)c2cc(-c3ccc(NCCNC)c(C)n3)nc3ccc(COC)cc23)c1C [Compound 427]
17 | 0.16 | CCn1ncc(CN(C)C(=O)c2cc(-c3ccc(NCCNC)c(C)n3)nc3ccc(C)cc23)c1C [Compound 429]

Continued, molecule first:

Row | SMILES | IC50 [µM]
18 | CCn1ncc(CN(C)C(=O)c2nc(-c3cnn(CCN(C)C(=O)OC(C)(C)C)c3)nc3ccc(Cl)cc23)c1C [Compound 197] | 20
19 | CCn1nc(C)c(CN(C)C(=O)c2nc(-c3ccccc3Cl)nc3ccc(Cl)cc23)c1C [Compound 201] | 20
20 | CCn1ncc(CN(C)C(=O)c2cc(-c3cn(C)c(C)n3)nc3cc(Cl)ccc23)c1C [Compound 203] | 20
21 | CCn1ncc(CN(C)C(=O)c2cc(-c3ccc(N(C)CCN(C)C)c(C)n3)nc3ccc(Cl)cc23)c1C [Compound 420] | 0.74
22 | CCn1ncc(CN(C)C(=O)c2cc(-c3cnc(NCCNC)cn3)nc3ccc(Cl)cc23)c1C [Compound 424] | 0.4
23 | CCn1ncc(CN(C)C(=O)c2nc(-c3ccc(OC4CCNCC4)c(OC)c3)nc3ccc(Cl)cc23)c1C [Compound 428] | 1.4
24 | CCn1ncc(CN(C)C(=O)c2cc(-c3ccc(OCCCNC)c(C)n3)nc3ccc(Cl)cc23)c1C [Compound 430] | 0.69

Same assay, conditions: H3K18Ac in-cell western; read-out: CREBBP ICW IC50

Row | SMILES | IC50 [µM]
25 | CCn1ncc(CN(C)C(=O)c2nc(N3CCCNCC3)nc3ccc(Cl)cc23)c1C [Compound 187] | 20
26 | CCn1ncc(CN(C)C(=O)c2nc(-c3cnn(CCCN(C)C(=O)OC(C)(C)C)c3)nc3ccc(Cl)cc23)c1C [Compound 188] | 20
27 | CCn1ncc(CN(C)C(=O)c2nc(-c3cnn(CCCNC(=O)OC(C)(C)C)c3)nc3ccc(Cl)cc23)c1C [Compound 189] | 20
28 | CCn1ncc(CN(C)C(=O)c2nc(-c3cccc(Cl)c3)nc3cc(N4CCOCC4)ccc23)c1C [Compound 191] | 20
29 | CCn1ncc(CN(C)C(=O)c2nc(N3CCN(C(C)=O)CC3)nc3ccc(Cl)cc23)c1C [Compound 195] | 20
